In article PMC6884456, “Supreme activity of gramicidin S against resistant, persistent and biofilm cells of staphylococci and enterococci” (Scientific Reports, 2019):
Where no end group is shown, it is not given here.

What was measured:
[1] = Chromatographic hydrophobicity index (CHI), C18
Method: (§1) HPLC was performed on an Agilent 1100 system with an ultraviolet diode array detector. […] Binding measurements were performed using Regis Technologies IAM.PC.DD2 (100 × 4.6 mm), HiChrom Chiralpak-HSA (50 × 3 mm) and HiChrom Chiralpak-AGP (50 × 3 mm) columns. […] Retention times were converted to log k and % binding, using calibration routines described in[72].

[2] = tested on: Danio rerio embryos; assay: Acute toxicity in Danio rerio embryos; type: in vivo; conditions: zebrafish embryos 72 hpf, E3 medium, heart beat
Method: Experiments were performed in accordance with the relevant OECD testing guidelines[73] and German animal protection standards. Wild type D. rerio embryos were obtained at the European Zebrafish Resource Center (Karlsruhe). Fertilized eggs (6 hpf) were raised in 4 ml of embryonic medium (E3) at 28 °C until 72 hpf (6-well plate, 20 eggs/well). Embryos were transferred into flat-bottom glass vials (E3, 1 ml, 15–20 embryos/vial). Peptides were added as 20 µl aliquots in 10% dimethyl sulfoxide in serial 2-fold dilutions. Toxicity was expressed as the concentration at which 50% of the embryos were visually observed to die (measured at 1 and 3 hours exposure) by identifying the heart beat.

[3] = tested on: S. aureus DSM 1104; type: cell-based, Staphylococcus aureus; conditions: S. aureus DSM 1104; 10 µl from MIC plates spotted on Mueller-Hinton agar, overnight 37 °C, no colonies on two plates
[4] = tested on: human erythrocytes; assay: Haemolysis assay; type: cell-based; conditions: 0.25% human erythrocyte suspension, 37 °C, 30 min, A540, relative to 0.1% Triton X-100
Method: Haemolytic activity was determined with a serial 2-fold dilution assay. Citrate phosphate dextrose-stabilized human erythrocyte suspensions were obtained from Karlsruhe Municipal Hospital. […] The mixture was pelleted (13 000 rpm, 10 min, 4 °C), and the absorbance of the supernatant was recorded at 540 nm vs. reaction buffer. The extent of haemolysis was related to the action of 0.1% Triton X-100 (100%).

[5] = tested on: E. faecalis DSM 2570; type: cell-based, Enterococcus faecalis; conditions: E. faecalis DSM 2570; spotted from MIC plates on Mueller-Hinton agar, overnight, no colonies
[6] = tested on: S. aureus DSM 1104 SCV; type: cell-based, Staphylococcus aureus; conditions: value in parentheses
Method: (§2) This parameter quantifies the ability of the peptides to prevent biofilm outgrowth.
(§3) After co-incubation with peptides at 37 °C and 5% CO2 without agitation for 24 hours, the planktonic cells were washed, and Crystal violet staining was applied.

[7] = tested on: S. aureus MRSA8 SCV; conditions: value in parentheses
Method: as §2, §3

[8] = tested on: S. aureus DSM 1104; conditions: S. aureus DSM 1104; value in parentheses
Method: as §2, §3

[9] = tested on: E. faecalis TRE2; conditions: E. faecalis TRE2; value in parentheses
Method: as §2, §3

[10] = tested on: E. faecalis WW6; conditions: E. faecalis WW6; Todd-Hewitt broth, 5 × 10^7 CFU/ml, 24 h, 37 °C, Crystal violet
Method: as §2, §3

[11] = tested on: E. faecalis DSM 2570; conditions: E. faecalis DSM 2570; value in parentheses
Method: as §2, §3

[12] = tested on: S. aureus MRSA3; type: cell-based, Staphylococcus aureus; conditions: S. aureus MRSA3; spotted from MIC plates on Mueller-Hinton agar, overnight, no colonies
[13] = tested on: E. faecium VRE1; type: cell-based, Enterococcus faecium; conditions: E. faecium VRE1; spotted from MIC plates on Mueller-Hinton agar, overnight, no colonies
[14] = tested on: E. faecalis WW6; type: cell-based, Enterococcus faecalis; conditions: E. faecalis WW6; spotted from MIC plates on Mueller-Hinton agar, overnight, no colonies
[15] = target: human serum albumin (HSA) (Homo sapiens, UniProt P02768); assay: HSA binding, biomimetic chromatography; conditions: Chiralpak-HSA column
Chain of human serum albumin (HSA) (P02768 25-609): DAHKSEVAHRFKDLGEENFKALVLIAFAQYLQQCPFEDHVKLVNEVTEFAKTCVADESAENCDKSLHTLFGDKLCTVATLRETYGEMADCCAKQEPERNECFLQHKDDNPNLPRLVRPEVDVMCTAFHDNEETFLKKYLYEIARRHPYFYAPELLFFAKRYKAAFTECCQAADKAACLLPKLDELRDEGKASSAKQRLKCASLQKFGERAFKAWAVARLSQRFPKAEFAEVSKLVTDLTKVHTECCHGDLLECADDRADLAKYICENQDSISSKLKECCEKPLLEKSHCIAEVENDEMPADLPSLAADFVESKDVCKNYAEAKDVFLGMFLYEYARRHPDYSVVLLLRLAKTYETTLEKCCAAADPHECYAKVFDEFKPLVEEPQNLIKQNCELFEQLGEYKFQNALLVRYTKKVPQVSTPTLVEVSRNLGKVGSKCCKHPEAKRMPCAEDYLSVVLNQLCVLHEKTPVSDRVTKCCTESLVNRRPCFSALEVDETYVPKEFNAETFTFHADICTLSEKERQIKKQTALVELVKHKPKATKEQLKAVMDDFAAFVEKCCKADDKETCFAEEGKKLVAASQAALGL
Method: as §1

[16] = tested on: E. faecalis WW4; type: cell-based, Enterococcus faecalis; conditions: E. faecalis WW4; spotted from MIC plates on Mueller-Hinton agar, overnight, no colonies
[17] = tested on: α1-acid glycoprotein (AGP); assay: AGP binding, biomimetic chromatography; conditions: Chiralpak-AGP column
Method: as §1

[18] = tested on: S. aureus MRSA4; type: cell-based, Staphylococcus aureus; conditions: S. aureus MRSA4; spotted from MIC plates on Mueller-Hinton agar, overnight, no colonies
[19] = tested on: E. faecalis TRE2; type: cell-based, Enterococcus faecalis; conditions: E. faecalis TRE2; spotted from MIC plates on Mueller-Hinton agar, overnight, no colonies
[20] = tested on: E. faecalis TRE4; type: cell-based, Enterococcus faecalis; conditions: E. faecalis TRE4; spotted from MIC plates on Mueller-Hinton agar, overnight, no colonies
[21] = tested on: S. aureus DSM 1104 SCV; type: cell-based, Staphylococcus aureus; conditions: spotted from MIC plates on Mueller-Hinton agar, overnight, no colonies
Method: MBC was determined directly after the MIC evaluation.

[22] = tested on: S. aureus MRSA8 SCV; conditions: spotted from MIC plates on Mueller-Hinton agar, overnight, no colonies
Method: (§4) MBC was determined directly after the MIC evaluation. The 10 µl samples of all 8 dilution rows in the microtiter plates were spotted on square Mueller-Hinton agar plates and incubated overnight at 37 °C and 5% CO2. The MBC was determined as the concentration at which no bacterial colonies were obtained on the two parallel spotted plates.

[23] = tested on: S. aureus MRSA538 SCV; conditions: spotted from MIC plates on Mueller-Hinton agar, overnight, no colonies
Method: as §4

[24] = tested on: S. aureus MRSA9 SCV; conditions: spotted from MIC plates on Mueller-Hinton agar, overnight, no colonies
Method: as §4

[25] = tested on: E. faecium VRE2; type: cell-based, Enterococcus faecium; conditions: E. faecium VRE2; spotted from MIC plates on Mueller-Hinton agar, overnight, no colonies
[26] = tested on: E. faecalis TRE1; type: cell-based, Enterococcus faecalis; conditions: E. faecalis TRE1; spotted from MIC plates on Mueller-Hinton agar, overnight, no colonies
[27] = tested on: S. aureus MRSA9; type: cell-based, Staphylococcus aureus; conditions: S. aureus MRSA9; spotted from MIC plates on Mueller-Hinton agar, overnight, no colonies
[28] = 50 mM ammonium acetate pH 7.4, 0–35% 2-propanol gradient, calibrated retention times, UV
[29] = pH 7.4, 0–35% 2-propanol gradient, value in parentheses

Substance: VRLIVAVRIWRR-NH2 [IDR, IDR-1018]
- chromatographic logD ([1]; pH 2.6): -0.53
- chromatographic logD ([1]; pH 7.4): 0.88
- chromatographic logD ([1]; pH 10.5): 4.43
- 1h LD50 ([2]; 1 hour exposure): 15 µg/mL
- 3h LD50 ([2]; 3 hours exposure): 11 µg/mL
- MBC [3]: 128 (83) µg/ml
- Haemolysis at 5 μM ([4]; 5 μM peptide): 18%
- Haemolysis at 10 μM ([4]; 10 μM peptide): 28%
- MBC [5]: 64 (42) µg/ml
- MBIC90 [6]: 83 µM
- MBIC90 [7]: 42 µM
- MBIC90 [8]: 42 µM
- MBIC90 [9]: 167 µM
- MBIC90 [10]: > 256 µg/mL
- MBIC90 [11]: 167 µM
- MBC [12]: 128 (83) µg/ml
- MBC [13]: 32 (21) µg/ml
- MBC [14]: 64 (42) µg/ml
- Bound HSA [15, 28]: 97.98%
- log k HSA [15, 29]: 1.51
- MBC [16]: 64 (42) µg/ml
- Bound AGP [17, 28]: 93.37%
- log k AGP [17, 29]: 1.09
- MBC [18]: > 256 µg/mL
- MBC [19]: 128 (83) µg/ml
- MBC [20]: 16 (10) µg/ml
- MBC [21]: 128 (83) µg/ml
- MBC [22]: 128 (83) µg/ml
- MBC [23]: 128 (83) µg/ml
- MBC [24]: 128 (83) µg/ml
- MBC [25]: 32 (21) µg/ml
- MBC [26]: 64 (42) µg/ml
- MBC [27]: 128 (83) µg/ml
